Source: patent publication US10597388B2, “Pyridazinone herbicides” (FMC CORPORATION, priority 2014, dated 2020)

Columns and labels:
Type in all cases: in vivo
kochia (Kochia scoparia) = assay: Test C greenhouse herbicide test, postemergence; conditions: Postemergence
Procedure, shortened: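 Plants grown in potting mix of peat moss, vermiculite, wetting agent and starter nutrients were sprayed postemergence at 2 to 18 cm height (1- to 4-leaf stage). After 13 to 15 d in the greenhouse, injury was visually rated against untreated controls on a 0–100 scale (0 no effect, 100 complete control).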

[1] = tested on: foxtail, giant (giant foxtail, Setaria faberii); assay: Test C greenhouse herbicide test, pre- and postemergence
Procedure, shortened: (§1)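 Greenhouse pots; pre-em on seeded loam:sand blend, post-em on 2–18 cm plants (1–4 leaf) in sphagnum peat/vermiculite medium. Formulation: non-phytotoxic solvent + surfactant. Read-out: visual % control (0–100) vs controls at 13–15 d.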

[2] = tested on: waterhemp (common waterhemp, Amaranthus rudis); assay: as above
Procedure, shortened: as §1

[3] = tested on: johnsongrass (Sorghum halepense); assay: as above
Procedure, shortened: as §1

[4] = tested on: nutsedge, yellow (yellow nutsedge, Cyperus esculentus); assay: as above
Procedure, shortened: as §1

[5] = tested on: blackgrass (Alopecurus myosuroides); assay: as above
Procedure, shortened: as §1

[6] = tested on: ragweed (common ragweed, Ambrosia elatior); assay: as above
Procedure, shortened: as §1

[7] = tested on: crabgrass, large (large crabgrass, Digitaria sanguinalis); assay: as above
Procedure, shortened: as §1

corn (Zea mays) = assay: as above
Procedure, shortened: as §1

soybean (Glycine max) = assay: as above
Procedure, shortened: as §1

[8] = tested on: oilseed rape (Brassica napus); assay: as above
Procedure, shortened: as §1

[9] = tested on: ryegrass, Italian (Italian ryegrass, Lolium multiflorum); assay: as above
Procedure, shortened: as §1

[10] = tested on: lambsquarters (Chenopodium album); assay: as above
Procedure, shortened: as §1

[11] = tested on: wheat (winter wheat, Triticum aestivum); assay: as above
Procedure, shortened: as §1

[12] = tested on: pigweed (Amaranthus retroflexus); assay: as above
Procedure, shortened: as §1

[13] = tested on: morningglory (Ipomoea coccinea); assay: as above
Procedure, shortened: as §1

[14] = Postemergence, 31 g ai/ha, scale 0 to 100 (0 no effect, 100 complete control)
[15] = Postemergence, 125 g ai/ha, scale 0 to 100, 0 is no effect, 100 is complete control
[16] = Postemergence, 250 g ai/ha, scale 0 to 100, 0 no effect, 100 complete control, 13 to 15 d
[17] = Preemergence, 31 g ai/ha, scale 0 to 100, 0 is no effect, 100 is complete control
[18] = Preemergence, 62 g ai/ha, scale 0 to 100, 0 is no effect, 100 is complete control
[19] = Preemergence, 125 g ai/ha, scale 0 to 100, 0 is no effect, 100 is complete control
[20] = Preemergence, 250 g ai/ha, scale 0 to 100 (0 no effect, 100 complete control)
[21] = postemergence, 62 g ai/ha, scale 0 to 100, 0 no effect, 100 complete control

Cc1nn(C)c(=O)c(-c2c(C)sc3ccc(Cl)cc23)c1O [Compound 104]
30: Johnsongrass plant response rating [3, 20] | Plant response rating, Nutsedge, Yellow [4, 17] | Plant response rating, Blackgrass [5, 19] | Crabgrass, Large plant response rating [7, 21] | Plant response rating, Corn (corn (Zea mays); [16]) | Plant response rating, Oilseed Rape [8, 18]
75: Plant response rating, Foxtail, Giant [1, 15] | Plant response rating, Foxtail, Giant [1, 17] | Plant response rating, Foxtail, Giant [1, 19] | Plant response rating, Waterhemp [2, 17] | Plant response rating, Nutsedge, Yellow [4, 16] | Plant response rating, Nutsedge, Yellow [4, 19]
10: Plant response rating, Johnsongrass [3, 14] | Plant response rating, Johnsongrass [3, 17] | Corn plant response rating (corn (Zea mays); [20]) | Plant response rating, Soybean (soybean (Glycine max); [15]) | Plant response rating, Soybean (soybean (Glycine max); [16]) | Plant response rating, Wheat [11, 16]
98: Plant response rating, Ragweed [6, 15] | Plant response rating, Oilseed Rape [8, 16] | Plant response rating, Morningglory [13, 14] | Morningglory plant response rating [13, 20]
70: Plant response rating, Waterhemp [2, 14]
85: Plant response rating, Foxtail, Giant [1, 16] | Plant response rating, Foxtail, Giant [1, 18] | Nutsedge, Yellow plant response rating [4, 20] | Plant response rating, Ragweed [6, 14] | Plant response rating, Ragweed [6, 17] | Plant response rating, Oilseed Rape [8, 14] | Plant response rating, Oilseed Rape [8, 19] | Plant response rating, Ryegrass, Italian [9, 18] | Plant response rating, Lambsquarters [10, 17] | Plant response rating, Lambsquarters [10, 18]
100: Plant response rating, Kochia (kochia (Kochia scoparia); 250 g ai/ha, scale 0 to 100, 0 no effect, 100 complete control, 13 to 15 d) | Foxtail, Giant plant response rating [1, 20] | Plant response rating, Waterhemp [2, 15] | Plant response rating, Waterhemp [2, 19] | Waterhemp plant response rating [2, 20] | Plant response rating, Ragweed [6, 16] | Ragweed plant response rating [6, 20] | Plant response rating, Lambsquarters [10, 15] | Plant response rating, Lambsquarters [10, 16] | Plant response rating, Pigweed [12, 15] | Plant response rating, Pigweed [12, 16] | Plant response rating, Pigweed [12, 17] | Plant response rating, Pigweed [12, 18] | Plant response rating, Pigweed [12, 19] | Pigweed plant response rating [12, 20] | Plant response rating, Morningglory [13, 15] | Plant response rating, Morningglory [13, 16] | Plant response rating, Morningglory [13, 19]
60: Plant response rating, Nutsedge, Yellow [4, 15] | Blackgrass plant response rating [5, 20] | Crabgrass, Large plant response rating [7, 20]
80: Corn plant response rating (corn (Zea mays); [21]) | Plant response rating, Morningglory [13, 17]
0: Plant response rating, Corn (corn (Zea mays); [18]) | Plant response rating, Soybean (soybean (Glycine max); [14]) | Plant response rating, Soybean (soybean (Glycine max); [17]) | Plant response rating, Soybean (soybean (Glycine max); [18]) | Plant response rating, Soybean (soybean (Glycine max); [19]) | Soybean plant response rating (soybean (Glycine max); [20]) | Plant response rating, Wheat [11, 14] | Wheat plant response rating [11, 20]
20: Plant response rating, Johnsongrass [3, 18] | Plant response rating, Johnsongrass [3, 19] | Plant response rating, Crabgrass, Large [7, 14]
35: Blackgrass plant response rating [5, 21] | Plant response rating, Crabgrass, Large [7, 15]
55: Plant response rating, Nutsedge, Yellow [4, 14] | Plant response rating, Blackgrass [5, 16] | Plant response rating, Crabgrass, Large [7, 16] | Plant response rating, Crabgrass, Large [7, 18] | Plant response rating, Crabgrass, Large [7, 19] | Plant response rating, Ryegrass, Italian [9, 17]
15: Plant response rating, Blackgrass [5, 14] | Plant response rating, Blackgrass [5, 18] | Plant response rating, Corn (corn (Zea mays); [19])
45: Plant response rating, Nutsedge, Yellow [4, 18]
5: Plant response rating, Johnsongrass [3, 15] | Plant response rating, Johnsongrass [3, 16] | Plant response rating, Blackgrass [5, 17] | Plant response rating, Corn (corn (Zea mays); [14]) | Plant response rating, Corn (corn (Zea mays); [17]) | Plant response rating, Oilseed Rape [8, 17] | Plant response rating, Wheat [11, 15] | Plant response rating, Wheat [11, 17] | Plant response rating, Wheat [11, 18] | Plant response rating, Wheat [11, 19]
50: Plant response rating, Foxtail, Giant [1, 14] | Plant response rating, Blackgrass [5, 15] | Plant response rating, Corn (corn (Zea mays); [15])
90: Plant response rating, Waterhemp [2, 18] | Plant response rating, Ragweed [6, 18] | Plant response rating, Ryegrass, Italian [9, 14] | Plant response rating, Ryegrass, Italian [9, 15] | Plant response rating, Ryegrass, Italian [9, 16] | Plant response rating, Ryegrass, Italian [9, 19] | Plant response rating, Lambsquarters [10, 14]
95: Plant response rating, Kochia (kochia (Kochia scoparia); 31 g ai/ha, scale 0 to 100 (0 no effect, 100 complete control)) | Plant response rating, Kochia (kochia (Kochia scoparia); 125 g ai/ha, scale 0 to 100, 0 is no effect, 100 is complete control) | Plant response rating, Waterhemp [2, 16] | Plant response rating, Ragweed [6, 19] | Plant response rating, Oilseed Rape [8, 15] | Oilseed Rape plant response rating [8, 20] | Ryegrass, Italian plant response rating [9, 20] | Plant response rating, Lambsquarters [10, 19] | Lambsquarters plant response rating [10, 20] | Plant response rating, Pigweed [12, 14] | Plant response rating, Morningglory [13, 18]
40: Plant response rating, Crabgrass, Large [7, 17]
